In patent publication US5877165A, “Boronated porhyrins and methods for their use” (priority 1997, dated 1999):

System: EMT-6 mammary tumors
Assay: Experiment III: boron concentrations in tissues, mice bearing EMT-6 tumors (Table 8)
Parameters: species or system BALB/c mice
Conditions: mouse, in vivo, ip, 183 mg/kg
Description: Lipophilic porphyrins 1, 2, 4, 5, and 6 were injected as emulsions in either 3% or 9% CRM and either 6% or 18% PRG with saline as previously described in Example 2 above. Water soluble porphyrins 3 and 7 were dissolved in saline. BPA was solubilized as a fructose complex.
Female BALB/c mice (from Taconic Farms, Germantown, N.Y.) (20-25 g) were implanted with either KHJJ or EMT-6 tumors according to the procedure described in Example 3A above.
Under deep halothane anesthesia leading to euthanasia, right ventricular blood was collected in Microtainer (Becton-Dickinson, Rutherford, N.J.) tubes containing EDTA for hematological analyses and boron assays of whole blood and in Microtainer™ tubes containing lithium heparin for chemical analyses and enzyme assays of blood plasma. Tumor, brain, fat, muscle, and liver tissues were sampled at necropsy for boron analyses.
In Experiment III, NiTCP and NiTCP-H were compared in mice bearing EMT-6 mammary tumors. Each porphyrin was administered via 6 i.p. injections over a period of 32 hours and the mice were euthanized 39 hours and 90 hours after the last injection.
Hematological, chemical and enzymatic tests were carried out as described in Example 3 above. Nonparametric statistical analyses were carried out using the Wilcoxon Two-Sample Test in accordance with procedures described in Slatkin, D.N., 1995. Boron analyses were conducted in accordance with the procedure described in Example 3 above. Fat and liver tissues were assayed for ^10 B by prompt-gamma spectroscopy as described in Fairchild, et al., 1986. These measurements were multiplied by 5.0 to give total boron concentrations due to the use of boron of natural isotope abundance in the syntheses of all boronated porphyrins reported.

Nickel Tetracarboranylphenylporphyrin [NiTCP]
Boron concentration, Blood (39 h): 2.8 (0.8-11.4) μg B/g | Boron concentration, Brain (39 h): 1.6 (1.0-2.5) μg B/g | Boron concentration, Liver (39 h): 201 (162-251) μg B/g | Boron concentration, Tumor (39 h): 40 (26-73) μg B/g | Boron concentration, Blood (90 h): 0.3 (0.1-0.3) μg B/g | Boron concentration, Brain (90 h): 4.2 (1.3-6.0) μg B/g | Boron concentration, Liver (90 h): 226 (176-284) μg B/g
